Test results: patent US20260216294A1, “BETA 2-ADRENERGIC RECEPTOR AGONISTS FOR TREATMENT OR PREVENTION OF MUSCLE WASTING” (ATROGI AB, priority 2023, published 2026)

Tests used:
L6-myotubes [1] = assay: Glucose uptake in differentiated L6-myotubes (Biological Example 2); type: cell-based; conditions: read-out: Biological example 2 (GU)
Procedure, shortened: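 Uptake was quantified as radioactivity in 0.2 M NaOH lysates after a 10 min pulse of 50 nM ^3H-2-deoxyglucose. The pulse followed two agonist exposures at 1×10^−5 M final (isoprenaline or test compound): 1 h 40 min, then 20 min in glucose-free medium after washing. L6 myotubes had been starved overnight in medium with 0.5% fatty-acid-free BSA.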

L6-myotubes [2] = assay: Measurement of intracellular cAMP levels in differentiated L6-myotubes (Biological Example 3); type: cell-based; conditions: 0.25 h
Procedure, shortened: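 Intracellular cAMP quantified by AlphaScreen after ethanol extraction and lysis of L6 myotubes. Cells were serum-starved overnight, then exposed for 15 min to compound (final 1×10^−5 M) or isoprenaline in IBMX-containing (1 mM) HBSS buffer, pH 7.4.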

[3] = glucose uptake, compound at 10 μM relative to isoproterenol at 10 μM
[4] = intracellular cAMP, compound at 10 μM relative to isoproterenol at 10 μM
[5] = glucose uptake in differentiated L6-myotubes, compound at 10 μM, activity relative to isoproterenol at 10 μM
[6] = intracellular cAMP in differentiated L6-myotubes, compound at 10 μM, activity relative to isoproterenol at 10 μM

| SMILES | Emax at 10 µM (L6-myotubes [1]; [3]) | Emax at 10 µM (L6-myotubes [2]; [4]) | Emax at 10 µM (L6-myotubes [1]; [5]) | Emax at 10 µM (L6-myotubes [2]; [6]) |
| --- | --- | --- | --- | --- |
| CC(C)(C)NC[C@H](O)c1ccc(F)cc1O [Compound 80, (R)-2-(tert-butylamino)-1-(4-fluoro-2-hydroxyphenyl)-1-ethanol] | 50 to 75% | < 25% |  |  |
| CC(=O)N[C@H]1CC[C@H](CCC(C)(C)NC[C@H](O)c2cncc(F)c2)CC1 [Compound 361, N-[(1R,4r)-4-{3-[(R)-2-(5-fluoro-3-pyridyl)-2-hydroxyethylamino]-3-methylbutyl}cyclohexyl] acetamide] |  |  | > 75% | < 25% |
| CC(C)(C[C@H]1CC[C@@H](NS(C)(=O)=O)CC1)NC[C@H](O)c1cccc(C#N)n1 [Compound 422, 6-[(S)-2-{1,1-dimethyl-2-[(1s,4R)-4-(mesylamino)cyclohexyl]ethylamino}-1-hydroxyethyl]-2-pyridinecarbonitrile] |  |  | 50 to 75% | < 25% |
| CCC[C@H]1CCC[C@H]([C@H](O)c2ccc(F)cc2)N1 [Compound 92] | 25 to 50% | < 25% |  |  |
| CC(C)(CC[C@H]1CC[C@@H](C(=O)O)CC1)NC[C@H](O)c1cccc(F)c1 [Compound 352, (1S,4s)-4-{3-[(R)-2-(m-fluorophenyl)-2-hydroxyethylamino]-3-methylbutyl} cyclohexanecarboxylic acid] |  |  | 25 to 50% | < 25% |
| CCC[C@H]1CC[C@H]([C@H](O)c2cccc(O)c2)N1 [Compound 125, m-{(R)-[(2R,5S)-5-propyl-2-pyrrolidinyl] hydroxymethyl}phenol] | 50 to 75% | < 25% |  |  |
| O[C@@H](c1cncc(F)c1)C12CCC(COCc3ccc(F)cc3)(CC1)N2 [Compound 442, (S)-(4-{[(p-fluorophenyl)methoxy]methyl}-7-azabicyclo[[2.2.1]]hept-1-yl)(5-fluoro-3-pyridyl)methanol] |  |  | 25 to 50% | < 25% |
| CC(C)(NC[C@H](O)c1cncc(F)c1)[C@H]1CC[C@@H](OCc2ccccc2)CC1 [Compound 282, (R)-1-(5-fluoro-3-pyridyl)-2-{1-methyl-1-[(1s,4S)-4-(benzyloxy)cyclohexyl]ethylamino}-1-ethanol] |  |  | 50 to 75% | < 25% |
| CC(C)(CC[C@H]1CC[C@H](C(=O)O)CC1)NC[C@H](O)c1cccc(F)c1 [Compound 348, (1R,4r)-4-{3-[(R)-2-(m-fluorophenyl)-2-hydroxyethylamino]-3-methylbutyl} cyclohexanecarboxylic acid] |  |  | < 25% | < 25% |
| C[C@H]1CC[C@@H]([C@@H](O)c2cccc(O)c2)N1 (racemic) [Compound 41, Racemic mixture of m-{(R)-[(2R,5R)-5-methyl-2-pyrrolidinyl] hydroxymethyl}phenol and m-{(S)-[(2S,5S)-5-methyl-2-pyrrolidinyl] hydroxymethyl}phenol] | > 75% | < 25% |  |  |
| CCCCNC[C@H](O)c1ccnc(N)n1 [Compound 73, (S)-1-(2-amino-4-pyrimidinyl)-2-(butylamino)-1-ethanol] | 25 to 50% | < 25% |  |  |
| COCC12CCC([C@@H](O)c3cccc(F)c3)(CC1)N2 [Compound 329, (S)-(m-fluorophenyl){4-(methoxymethyl)-7-azabicyclo[[2.2.1]]hept-1-yl}methanol] |  |  | 25 to 50% | < 25% |
| CCS(=O)(=O)N[C@H]1CC[C@@H](CC(C)(C)NC[C@H](O)c2cncc(F)c2)CC1 [Compound 524] |  |  | 50 to 75% | < 25% |
| COc1ccc(CCC23CCC([C@H](O)c4cccc(F)c4)(CC2)N3)cc1 [Compound 540, (R)-(m-fluorophenyl){4-[2-(p-methoxyphenyl)ethyl]-7-azabicyclo[[2.2.1]]hept-1-yl}methanol] |  |  | 50 to 75% | 25 to 50% |
| CC12CC(C1)[C@@H]([C@H](O)c1ccccc1F)N2 [Compound 213] |  |  | > 75% | < 25% |
| CO[C@H]1CC[C@H](C[C@]2(C)CC[C@H]([C@@H](O)c3cccc(F)c3)N2)CC1 [Compound 363, (S)-[(2R,5S)-5-methyl-5-{[(1r,4S)-4-methoxycyclohexyl]methyl}-2-pyrrolidinyl](m-fluorophenyl)methanol] |  |  | > 75% | < 25% |
| CCC[C@@H]1CCC[C@H]([C@H](O)c2ccc(F)cc2)N1 [Compound 94] | 50 to 75% | < 25% |  |  |
| CC(C)(C)NC[C@H](O)c1ccc(F)c(O)c1 [Compound 84, (R)-2-(tert-butylamino)-1-(4-fluoro-3-hydroxyphenyl)-1-ethanol] | > 75% | 50 to 75% |  |  |
| CNS(=O)(=O)[C@H]1CC[C@H](CC(C)(C)NC[C@H](O)c2cncc(F)c2)CC1 [Compound 478, (R)-2-{1,1-dimethyl-2-[(1r,4R)-4-(methylaminosulfonyl)cyclohexyl]ethylamino}-1-(5-fluoro-3-pyridyl)-1-ethanol] |  |  | 25 to 50% | < 25% |
| CO[C@H]1CC[C@H](C[C@]2(C)CC[C@H]([C@H](O)c3cccc(F)c3)N2)CC1 [Compound 364, (R)-[(2R,5S)-5-methyl-5-{[(1r,4S)-4-methoxycyclohexyl]methyl}-2-pyrrolidinyl] (m-fluorophenyl)methanol] |  |  | > 75% | 50 to 75% |

| SMILES | Emax at 10 µM (L6-myotubes [1]; [3]) | Emax at 10 µM (L6-myotubes [2]; [4]) | Emax at 10 µM (L6-myotubes [1]; [5]) | Emax at 10 µM (L6-myotubes [2]; [6]) |
| --- | --- | --- | --- | --- |
| CN(C)S(=O)(=O)[C@H]1CC[C@H](CC(C)(C)NC[C@H](O)c2cncc(F)c2)CC1 [Compound 465] |  |  | 50 to 75% | 25 to 50% |
| O=C(N[C@H]1CC[C@@H](CNC[C@H](O)c2cncc(F)c2)CC1)c1ccccc1 [Compound 318] |  |  | 50 to 75% | < 25% |
| CC(C)(NC[C@H](O)c1cncc(F)c1)[C@H]1CC[C@H](N)CC1 [Compound 344] |  |  | < 25% | < 25% |
| CCC[C@@H]1CCC[C@@H]([C@@H](O)c2cccc(O)c2)N1 [Compound 113] | 50 to 75% | < 25% |  |  |
| CC(C)(NC[C@H](O)c1cccc(F)c1)[C@H]1CC[C@H](OCc2ccccc2)CC1 [Compound 279, (R)-1-(m-fluorophenyl)-2-{1-methyl-1-[(1r,4R)-4-(benzyloxy)cyclohexyl]ethylamino}-1-ethanol] |  |  | 50 to 75% | < 25% |
| COc1ccc(C[C@@]2(C)CC[C@H]([C@@H](O)c3cccc(F)c3)N2)cc1 [Compound 365, (S)-{(2R,5R)-5-[(p-methoxyphenyl)methyl]-5-methyl-2-pyrrolidinyl}(m-fluorophenyl)methanol] |  |  | > 75% | < 25% |
| CCCC1(CCC)CC[C@H]([C@@H](O)c2cccc(F)c2)N1 [Compound 158, (S)-[(R)-5,5-dipropyl-2-pyrrolidinyl](m-fluorophenyl)methanol] | < 25% | < 25% |  |  |
| CC(=O)N[C@H]1CC[C@@H](C[C@@H]2CC[C@H]([C@@H](O)c3cccc(F)c3)N2)CC1 [Compound 483] |  |  | < 25% | < 25% |
| CC(C)(C[C@H]1CC[C@H](NC(=O)C2CC2)CC1)NC[C@H](O)c1cccc(F)c1 [Compound 432] |  |  | > 75% | > 75% |
| CC(C)(C[C@H]1CC[C@@H](N)CC1)NC[C@@H](O)c1cccc(C#N)n1 [Compound 416] |  |  | 50 to 75% | < 25% |
| CC(C)(C)NC[C@H](O)c1ncccc1Cl [Compound 146, (S)-2-(tert-butylamino)-1-(3-chloro-2-pyridyl)-1-ethanol] | 25 to 50% | < 25% |  |  |
| CCC[C@H]1CCC[C@@H]([C@@H](O)c2cccc(O)c2)N1 [Compound 121] | > 75% | < 25% |  |  |
| CC1(C)CC[C@H]([C@H](O)c2cccc(O)c2)N1 [Compound 112, m-{(R)-[(R)-5,5-dimethyl-2-pyrrolidinyl] hydroxymethyl}phenol] | > 75% | < 25% |  |  |
| CC1(C)CC[C@H]([C@@H](O)c2ccccc2F)N1 [Compound 174, (S)-[(R)-5,5-dimethyl-2-pyrrolidinyl](o-fluorophenyl)methanol] | < 25% | < 25% |  |  |
| O[C@H](c1cccc(F)c1)C12CCC(Cc3ccc(F)cc3)(CC1)N2 [Compound 413, (R)-(m-fluorophenyl){4-[(p-fluorophenyl)methyl]-7-azabicyclo[[2.2.1]]hept-1-yl}methanol] |  |  | > 75% | < 25% |
| CCC[C@H]1CCC[C@@H]([C@@H](O)c2cccc(F)c2)N1 [Compound 119] | 25 to 50% | < 25% |  |  |
| CO[C@H]1CC[C@@H](CC(C)(C)NC[C@H](O)c2cncc(F)c2)CC1 [Compound 248, (R)-2-{1,1-dimethyl-2-[(1s,4S)-4-methoxycyclohexyl]ethylamino}-1-(5-fluoro-3-pyridyl)-1-ethanol] |  |  | > 75% | < 25% |
| CC1(C)C[C@H]([C@@H](O)c2cncc(F)c2)N1 [Compound 217] |  |  | 25 to 50% | < 25% |
| CC(C)(NC[C@H](O)c1cccc(F)c1)[C@H]1CC[C@@H](C(=O)O)CC1 [Compound 369] |  |  | 50 to 75% | < 25% |
| CCCCNCC(O)c1cc(F)cc(F)c1 (centres unmarked) [Compound 55, 2-(butylamino)-1-(3,5-difluorophenyl)-1-ethanol] | 50 to 75% | < 25% |  |  |
